Tests used:
SMN2 (ISS-N1 intron 7) [1] = assay: FL-SMN2 expression relative to Δ7 SMN2 transcripts by RT-qPCR in tissues of severe SMA mice; type: in vivo, mouse; details: both doses (40 and 80 mg/kg s.c. at PD0), tissues at PD7, peripheral and CNS tissues, RT-qPCR ΔΔCt
Protocol: (§1) To evaluate the change of FL-SMN2 expression relative to Δ7 SMN2 transcripts, we used real-time quantitative PCR (RT-qPCR) at PD7; the mice were treated with DG9-PMO at PD0. In both doses, DG9-PMO treatment led to a 4- to 30-fold higher FL-SMN2 expression than NT control in both peripheral and CNS tissues (Figure 2A and Supplemental Figure 3A). It also led to a ~5-fold increase in FL-SMN2 expression when compared with unconjugated PMO, MOE, and R6G-PMO treatments in the majority of the tissues (Figure 2A, Supplemental Figure 3A, and Supplemental Figure 1F). […] SMN levels were higher in CNS tissues in the DG9-PMO–treated than MOE-treated mice, though no statistical significance was seen. […] SMN levels were similar in DG9-PMO and MOE in the tissues collected from mice at PD30.
Injections were carried out using a 30-gauge Hamilton syringe. SMA mice identified following genotyping were randomly assigned to a treatment group. […]
(§2) Frozen tissues harvested at PD7 were sectioned using a cryostat (Leica CM 1950) into 20 μm sections. […] The relative gene expression for FL-SMN2 over the deletion of SMN2 transcripts without exon 7 was normalized to the NT control samples and analyzed using the ΔΔCt method. The expression of denervation markers relative to 18S was normalized to the healthy heterozygous control samples collected at PD30 and analyzed using the ΔΔCt method.

SMN protein = SMN protein levels by Western blotting in tissues of severe SMA mice; type: in vivo, mouse
Protocol: as §1
Total protein was extracted from frozen tissues harvested at PD7 or PD30 by using RIPA buffer (MilliporeSigma) with cOmplete, Mini, EDTA-free protease inhibitor cocktail (MilliporeSigma). The protein concentration was quantified using the Pierce BCA Protein Assay Kit (Thermo Fisher Scientific). […] The bands were detected using the Amersham ECL Select Western Blotting Detection Kit (GE Healthcare) and visualized by the ChemiDoc Touch Imaging system (Bio-Rad). […]

severe SMA mouse model = assay: Hind limb suspension (HLS) assay (tube test); type: in vivo; details: 40 mg/kg s.c. at PD0, PD2–PD12
Excerpt: To evaluate the effects of systemic DG9-PMO treatment on muscle strength and the function of motor neurons, we used several functional tests and compared motor function in the treated and NT mice at various time points. We performed the hind limb suspension (HLS) assay and the righting reflex test during the early weeks of life. […] It should be noted that the results beyond PD12 are biased, as only the healthiest unconjugated PMO–, MOE-, and R6G-PMO–treated mice survived to these time points.
This test was performed on neonatal mice PD2–PD12 as described in Treat NMD protocol SMA_M.2.2.001 ([72]). Briefly, neonatal mice were suspended on their hind limbs from a tube. They were scored based on the position of the hind limbs and their latency to fall was recorded with a 30-second cutoff. Each neonatal pup underwent 3 trials, with a 15-minute break between each trial. The average score was noted by the observer under a blinded test protocol.

CD68+ macrophages = assay: CD68+ macrophage detection in quadriceps muscle; type: in vivo, mouse; details: 40 mg/kg s.c. at PD0, quadriceps muscle sections at PD7
Excerpt: Peptides can typically pose as antigens, leading to immune reactions. Therefore, we examined the susceptibility of DG9-PMO to cause immune activation at an early neonatal stage, by looking at CD68^+ cells, indicative of circulating and tissue macrophages, in the quadriceps muscle sections at PD7 (Supplemental Figure 9, A and B). […] The apparent reduction in circulating macrophages following DG9-PMO treatment is likely due to amelioration of the atrophic musculature, which would compensate for any elevation seen from the treatment itself.
Cryosections (7 μm) of the quadriceps muscle were fixed with 4% PFA. The sections were incubated with rat anti-mouse CD68 antibody (MCA1957T, Bio-Rad). The number of CD68^+ cells was counted and averaged from at least 5 sections per sample at random intervals at 20× original magnification.

SMN2 (ISS-N1 intron 7) [2] = assay: FL-SMN2 expression by RT-qPCR in mild SMA model (F0 mice); type: in vivo, mouse; details: s.c. at PD5; PD7 (40 mg/kg) and PD13 (80 mg/kg)
Excerpt: To target the motor neurons in the CNS via systemic administration, AOs need to cross the BBB in patients with SMA. For this study, we used a milder SMA model (F0) (Smn^–/– SMN2^+/+) with 4 SMN2 copies obtained from Jackson Laboratory (JAX 005058) that are viable, are fertile, and have shortened, thick tails since severe SMA model mice have a median survival of only 8 days, making it difficult to evaluate the treatment efficacy when the BBB is mature. […] To determine the ability of DG9-PMO to reach the CNS, we subcutaneously injected 40 mg/kg or 80 mg/kg fluorescently tagged DG9-PMO into F0 mice at PD0 or PD5. […] We also performed an ELISA to examine the biodistribution of unconjugated PMO and DG9-PMO at PD7.
as §2

CC(=O)N[C@@H](Cc1ccc(O)cc1)C(=O)N[C@@H](C)C(=O)N[C@H](CCCNC(=N)N)C(=O)N[C@H](C(=O)N[C@@H](CCCNC(=N)N)C(=O)N[C@@H](CCCNC(=N)N)C(=O)N[C@H](CCCNC(=N)N)C(=O)NCC(=O)N1CCC[C@H]1C(=O)N[C@@H](CCCNC(=N)N)C(=O)NCC(=O)N[C@@H](Cc1ccc(O)cc1)C(=O)N[C@@H](C)C(=O)N[C@H](CCCNC(=N)N)C(=O)N[C@H](C(=O)N[C@@H](CCCNC(=N)N)C(=O)N[C@@H](CCCNC(=N)N)C(=O)N[C@H](CCCNC(=N)N)C(=O)NCC(=O)N1CCC[C@H]1C(=O)N[C@@H](CCCNC(=N)N)C(=O)N[C@H](CCCNC(=N)N)C(=O)N1C[C@@H](COP(=O)(N(C)C)N2C[C@@H](COP(=O)(N(C)C)N3C[C@@H](COP(=O)(N(C)C)N4C[C@@H](COP(=O)(N(C)C)N5C[C@@H](COP(=O)(N(C)C)N6C[C@@H](COP(=O)(N(C)C)N7C[C@@H](COP(=O)(N(C)C)N8C[C@@H](COP(=O)(N(C)C)N9C[C@@H](COP(=O)(N(C)C)N%10C[C@@H](COP(=O)(N(C)C)N%11C[C@@H](COP(=O)(N(C)C)N%12C[C@@H](COP(=O)(N(C)C)N%13C[C@@H](COP(=O)(N(C)C)N%14C[C@@H](COP(=O)(N(C)C)N%15C[C@@H](COP(=O)(N(C)C)N%16C[C@@H](COP(=O)(N(C)C)N%17C[C@@H](COP(=O)(N(C)C)N%18C[C@@H](COP(=O)(N(C)C)N%19CCC(C(N)=O)CC%19)O[C@@H](n%19cc(C)c(=O)[nH]c%19=O)C%18)O[C@@H](n%18ccc(N)nc%18=O)C%17)O[C@@H](n%17cnc%18c(N)ncnc%18%17)C%16)O[C@@H](n%16ccc(N)nc%16=O)C%15)O[C@@H](n%15cc(C)c(=O)[nH]c%15=O)C%14)O[C@@H](n%14cc(C)c(=O)[nH]c%14=O)C%13)O[C@@H](n%13cc(C)c(=O)[nH]c%13=O)C%12)O[C@@H](n%12ccc(N)nc%12=O)C%11)O[C@@H](n%11cnc%12c(N)ncnc%12%11)C%10)O[C@@H](n%10cc(C)c(=O)[nH]c%10=O)C9)O[C@@H](n9cnc%10c(N)ncnc%109)C8)O[C@@H](n8cnc9c(N)ncnc98)C7)O[C@@H](n7cc(C)c(=O)[nH]c7=O)C6)O[C@@H](n6cnc7c(=O)[nH]c(N)nc76)C5)O[C@@H](n5ccc(N)nc5=O)C4)O[C@@H](n4cc(C)c(=O)[nH]c4=O)C3)O[C@@H](n3cnc4c(=O)[nH]c(N)nc43)C2)O[C@@H](n2cnc3c(=O)[nH]c(N)nc32)C1)C(C)C)C(C)C (stereo partly drawn) [DG9-PMO]
FL-SMN2 expression (relative to Δ7 SMN2), fold higher than NT control (SMN2 (ISS-N1 intron 7) [1]): 4- to 30 fold | SMN expression at PD30 (Western blotting) (SMN protein; 40 mg/kg s.c. at PD0, tissues at PD30): sustained levels of SMN expression at PD30 | SMN protein levels (Western blotting) (SMN protein; s.c. at PD0, tissues at PD7, relative to β-tubulin): increased SMN protein levels in both the peripheral and CNS tissues | hind limb strength (HLS score) (severe SMA mouse model): hind limb strength comparable to the Hets at PD12 | number of CD68+ macrophages compared with the Hets (CD68+ macrophages): no significant difference | FL-SMN2 expression, mild SMA model (F0) (SMN2 (ISS-N1 intron 7) [2]): significant increase in the FL-SMN2 expression in both the CNS and peripheral tissues

From article PMC10077475, “DG9-conjugated morpholino rescues phenotype in SMA mice by reaching the CNS via a subcutaneous administration” (JCI Insight, 2023)
